Results taken from ChEMBL document CHEMBL6127111, “First-in-Class Small Molecule Degrader of Pregnane X Receptor Enhances Chemotherapy Efficacy” (J Med Chem, 2024).

How the values were obtained:
[1] = Cytotoxicity against human SNU-C4 HiBiT-PXR KI cell assessed as cell viability incubated for 24 hrs by celltiter-glo luminescent assay; format: functional
[2] = Cytotoxicity against human SNU-C4 HiBiT-PXR KI cell assessed as cell viability at 30 uM incubated for 24 hrs by celltiter-glo luminescent assay relative to control; format: functional; details: read-out: Activity
[3] = Cytotoxicity against human SNU-C4 HiBiT-PXR KI cell assessed as cell viability incubated for 72 hrs by celltiter-glo luminescent assay; format: functional
[4] = target: von Hippel-Lindau disease tumor suppressor/Nuclear receptor subfamily 1 group I member 2 (Homo sapiens, UniProt O75469+P40337); assay: PROTAC activity at N-terminal PXR/VHL in human SNU-C4 HiBiT-PXR KI cell assessed as reduction in PXR protein level incubated for 24 hrs by Western blot analysis; format: cell-based
Chain of von Hippel-Lindau disease tumor suppressor/Nuclear receptor subfamily 1 group I member 2 (P40337 whole entry, one chain of several): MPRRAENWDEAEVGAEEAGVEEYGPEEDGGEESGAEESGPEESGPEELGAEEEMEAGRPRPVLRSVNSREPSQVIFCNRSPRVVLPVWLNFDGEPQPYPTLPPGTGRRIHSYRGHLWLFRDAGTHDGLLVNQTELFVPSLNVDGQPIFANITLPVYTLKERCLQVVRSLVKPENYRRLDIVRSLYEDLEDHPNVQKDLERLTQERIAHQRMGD

[5] = Cytotoxicity against human SNU-C4 HiBiT-PXR KI cell assessed as cell viability at 30 uM incubated for 72 hrs by celltiter-glo luminescent assay relative to control; format: functional; details: read-out: Activity
[6] = target: T1, Nuclear receptor subfamily 1 group I member 2 (Homo sapiens, UniProt O75469); assay: Displacement of BODIPY FL-probe from GST-tagged PXR LBD (unknown origin) incubated for 90 mins by TR-FRET assay
T1 sequence (O75469 whole entry): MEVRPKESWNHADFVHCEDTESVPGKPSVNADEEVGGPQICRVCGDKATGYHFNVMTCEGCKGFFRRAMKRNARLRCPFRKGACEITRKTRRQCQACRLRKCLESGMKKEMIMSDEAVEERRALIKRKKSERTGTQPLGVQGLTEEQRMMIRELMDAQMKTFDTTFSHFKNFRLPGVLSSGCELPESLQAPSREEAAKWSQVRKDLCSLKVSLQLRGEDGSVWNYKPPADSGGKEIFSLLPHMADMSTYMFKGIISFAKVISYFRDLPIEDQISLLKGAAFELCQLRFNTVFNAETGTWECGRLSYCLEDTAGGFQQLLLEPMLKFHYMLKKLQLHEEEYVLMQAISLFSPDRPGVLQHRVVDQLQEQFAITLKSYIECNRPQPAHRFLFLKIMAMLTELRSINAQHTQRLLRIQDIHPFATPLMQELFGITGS

| Structure (SMILES) | CC50 [1] | viability at 30 µM [2] | CC50 [3] | DC50 [4] | viability at 30 µM [5] | Activity [6] |
| --- | --- | --- | --- | --- | --- | --- |
| CCC[C@H](CC)Oc1ccc(C(=O)NCCOCCOCCOCC(=O)N[C@H](C(=O)N2C[C@H](O)C[C@H]2C(=O)NCc2ccc(-c3scnc3C)cc2)C(C)(C)C)cc1NC(=O)c1nnn(-c2cc(OC)ccc2OC)c1C | > 30 µM | 98.3% | > 30 µM | > 30 µM | 89.1% |  |
| COc1cc(OCCCCCCOCCOCCOCCOCCOCCOCC(=O)N[C@H](C(=O)N2C[C@H](O)C[C@H]2C(=O)NCc2ccc(-c3scnc3C)cc2)C(C)(C)C)c(C)cc1-n1nnc(S(=O)(=O)c2ccc(C(C)(C)C)cc2)c1C | > 30 µM |  | > 30 µM | > 30 µM |  |  |
| CCC[C@H](CC)Oc1ccc(C(C)(C)C)cc1NC(=O)c1nnn(-c2cc(C)c(OCCCCCCOCCOCC(=O)N[C@H](C(=O)N3C[C@H](O)C[C@H]3C(=O)NCc3ccc(-c4scnc4C)cc3)C(C)(C)C)cc2OC)c1C | > 30 µM | 93.9% | > 30 µM |  | 104% |  |
| COc1cc(OCCCCCCCC(=O)N[C@H](C(=O)N2C[C@H](O)C[C@H]2C(=O)NCc2ccc(-c3scnc3C)cc2)C(C)(C)C)c(C)cc1-n1nnc(S(=O)(=O)c2ccc(C(C)(C)C)cc2)c1C | > 30 µM |  | > 30 µM | > 30 µM |  |  |
| CCC[C@H](CC)Oc1ccc(C(C)(C)C)cc1NC(=O)c1nnn(-c2cc(C)c(OC)cc2OC)c1C | > 30 µM | 99.3% | > 30 µM | > 30 µM | 106% |  |
| CCC[C@H](CC)Oc1ccc(C(=O)N[C@H](C(=O)N2C[C@H](O)C[C@H]2C(=O)NCc2ccc(-c3scnc3C)cc2)C(C)(C)C)cc1NC(=O)c1nnn(-c2cc(OC)ccc2OC)c1C | > 30 µM | 99.9% | > 30 µM | > 30 µM | 101% |  |
| CCC[C@H](CC)Oc1ccc(C(=O)NCCCCCCCCC(=O)N[C@H](C(=O)N2C[C@H](O)C[C@H]2C(=O)NCc2ccc(-c3scnc3C)cc2)C(C)(C)C)cc1NC(=O)c1nnn(-c2cc(OC)ccc2OC)c1C | > 30 µM | 102% | > 30 µM | > 30 µM | 104% |  |
| COc1cc(OCCOCCOCCOCCC(=O)N[C@H](C(=O)N2C[C@H](O)C[C@H]2C(=O)NCc2ccc(-c3scnc3C)cc2)C(C)(C)C)c(C)cc1-n1nnc(S(=O)(=O)c2ccc(C(C)(C)C)cc2)c1C | > 30 µM |  | > 30 µM | > 30 µM |  |  |
| COc1cc(OCC(=O)NCCOCCOCCOCCOCC(=O)N[C@H](C(=O)N2C[C@H](O)C[C@H]2C(=O)NCc2ccc(-c3scnc3C)cc2)C(C)(C)C)c(C)cc1-n1nnc(S(=O)(=O)c2ccc(C(C)(C)C)cc2)c1C | > 30 µM |  | > 30 µM | > 30 µM |  |  |
| COc1cc(OCCCCCCOCCOCCOCCCCCC(=O)N[C@H](C(=O)N2C[C@H](O)C[C@H]2C(=O)NCc2ccc(-c3scnc3C)cc2)C(C)(C)C)c(C)cc1-n1nnc(S(=O)(=O)c2ccc(C(C)(C)C)cc2)c1C | > 30 µM |  | > 30 µM | > 30 µM |  |  |
| CCC[C@H](CC)Oc1ccc(C(=O)NCCOCCOCCOCCOCC(=O)N[C@H](C(=O)N2C[C@H](O)C[C@H]2C(=O)NCc2ccc(-c3scnc3C)cc2)C(C)(C)C)cc1NC(=O)c1nnn(-c2cc(OC)ccc2OC)c1C | > 30 µM | 100% | > 30 µM | > 30 µM | 84.1% |  |
| COc1cc(OCCOCCOCCOCCOCCC(=O)N[C@H](C(=O)N2C[C@H](O)C[C@H]2C(=O)NCc2ccc(-c3scnc3C)cc2)C(C)(C)C)c(C)cc1-n1nnc(S(=O)(=O)c2ccc(C(C)(C)C)cc2)c1C | > 30 µM |  | > 30 µM | > 30 µM |  |  |
| CCC[C@H](CC)Oc1ccc(C(=O)NCCOCCOCC(=O)N[C@H](C(=O)N2C[C@H](O)C[C@H]2C(=O)NCc2ccc(-c3scnc3C)cc2)C(C)(C)C)cc1NC(=O)c1nnn(-c2cc(OC)ccc2OC)c1C | > 30 µM | 103% | > 30 µM | > 30 µM | 89.7% |  |
| COc1cc(OCCCCCCOCCCCCOCCCCCC(=O)N[C@H](C(=O)N2C[C@H](O)C[C@H]2C(=O)NCc2ccc(-c3scnc3C)cc2)C(C)(C)C)c(C)cc1-n1nnc(S(=O)(=O)c2ccc(C(C)(C)C)cc2)c1C | > 30 µM |  | > 30 µM |  | 94.3% |  |
| COc1cc(OCCOCCC(=O)N[C@H](C(=O)N2C[C@H](O)C[C@H]2C(=O)NCc2ccc(-c3scnc3C)cc2)C(C)(C)C)c(C)cc1-n1nnc(S(=O)(=O)c2ccc(C(C)(C)C)cc2)c1C | > 30 µM |  | > 30 µM | > 30 µM |  |  |
| CCCCOc1ccc(C(C)(C)C)cc1NC(=O)c1nnn(-c2cc(C)c(OCCCCCCOCCOCC(=O)N[C@H](C(=O)N3C[C@H](O)C[C@H]3C(=O)NCc3ccc(-c4scnc4C)cc3)C(C)(C)C)cc2OC)c1C | > 30 µM | 96.7% | > 30 µM |  | 91.2% |  |
| CCC[C@H](CC)Oc1ccc(C(=O)OC)cc1NC(=O)c1nnn(-c2cc(OC)ccc2OC)c1C | > 30 µM | 95.6% | > 30 µM | > 30 µM | 94.9% | Active |
| COc1cc(OCCCC(=O)N[C@H](C(=O)N2C[C@H](O)C[C@H]2C(=O)NCc2ccc(-c3scnc3C)cc2)C(C)(C)C)c(C)cc1-n1nnc(S(=O)(=O)c2ccc(C(C)(C)C)cc2)c1C | > 30 µM |  | > 30 µM | > 30 µM | 95.4% |  |
| COc1cc(OCCOCCOCCC(=O)N[C@H](C(=O)N2C[C@H](O)C[C@H]2C(=O)NCc2ccc(-c3scnc3C)cc2)C(C)(C)C)c(C)cc1-n1nnc(S(=O)(=O)c2ccc(C(C)(C)C)cc2)c1C | > 30 µM |  | > 30 µM | > 30 µM | 98.9% |  |
| CC(=O)N[C@H](C(=O)N1C[C@H](O)C[C@H]1C(=O)NCc1ccc(-c2scnc2C)cc1)C(C)(C)C | > 30 µM | 99.6% | > 30 µM |  | 93% |  |
| COc1cc(OCCCCCCOCCOCC(=O)N[C@H](C(=O)N2C[C@H](O)C[C@H]2C(=O)NCc2ccc(-c3scnc3C)cc2)C(C)(C)C)c(C)cc1-n1nnc(S(=O)(=O)c2ccc(C(C)(C)C)cc2)c1C | > 30 µM |  | > 30 µM |  |  |  |
| COc1cc(OCC(=O)N[C@H](C(=O)N2C[C@H](O)C[C@H]2C(=O)NCc2ccc(-c3scnc3C)cc2)C(C)(C)C)c(C)cc1-n1nnc(S(=O)(=O)c2ccc(C(C)(C)C)cc2)c1C | > 30 µM |  | > 30 µM | > 30 µM |  |  |
| CCC[C@H](CC)Oc1ccc(C(=O)NCCCCC(=O)N[C@H](C(=O)N2C[C@H](O)C[C@H]2C(=O)NCc2ccc(-c3scnc3C)cc2)C(C)(C)C)cc1NC(=O)c1nnn(-c2cc(OC)ccc2OC)c1C | > 30 µM | 101% | > 30 µM | > 30 µM | 98.9% |  |
| COc1ccc(OC)c(-n2nnc(C(=O)Nc3cc(OCCCCCCOCCOCC(=O)N[C@H](C(=O)N4C[C@H](O)C[C@H]4C(=O)NCc4ccc(-c5scnc5C)cc4)C(C)(C)C)cc(C(C)(C)C)c3)c2C)c1 | > 30 µM | 83.2% | > 30 µM |  | 68.2% |  |
| COc1cc(OCCOCCOCCOCCOCCOCCC(=O)N[C@H](C(=O)N2C[C@H](O)C[C@H]2C(=O)NCc2ccc(-c3scnc3C)cc2)C(C)(C)C)c(C)cc1-n1nnc(S(=O)(=O)c2ccc(C(C)(C)C)cc2)c1C | > 30 µM |  | > 30 µM | > 30 µM |  |  |
| CCC[C@H](CC)Oc1ccc(C(C)(C)C)cc1NC(=O)c1nnn(-c2cc(OC)ccc2OC)c1C | > 30 µM | 95.7% | > 30 µM | > 30 µM | 98.7% |  |
